Measured values from ChEMBL document CHEMBL2177061, “Factors influencing the specificity of inhibitor binding to the human and malaria parasite dihydroorotate dehydrogenases” (J Med Chem, 2012).
Where a chain is given by its changes, count along the chain named.

How the values were obtained:
[1] = biological target: Dihydroorotate dehydrogenase (quinone), mitochondrial (Homo sapiens, UniProt Q02127); assay: Inhibition of human […] dehydrogenase expressed in Escherichia coli BL21(DE3) using […] as substrate by DCIP-based colorimetric analysis
[2] = tested on: T1, Dihydroorotate dehydrogenase (quinone), mitochondrial (Plasmodium falciparum (isolate 3D7)), Q08210 [C276F]; assay: Inhibition of Plasmodium falciparum […] dehydrogenase C276F mutant expressed in Escherichia coli BL21(DE3) using […] as substrate at 100 uM by DCIP-based colorimetric analysis
T1 sequence (whole entry): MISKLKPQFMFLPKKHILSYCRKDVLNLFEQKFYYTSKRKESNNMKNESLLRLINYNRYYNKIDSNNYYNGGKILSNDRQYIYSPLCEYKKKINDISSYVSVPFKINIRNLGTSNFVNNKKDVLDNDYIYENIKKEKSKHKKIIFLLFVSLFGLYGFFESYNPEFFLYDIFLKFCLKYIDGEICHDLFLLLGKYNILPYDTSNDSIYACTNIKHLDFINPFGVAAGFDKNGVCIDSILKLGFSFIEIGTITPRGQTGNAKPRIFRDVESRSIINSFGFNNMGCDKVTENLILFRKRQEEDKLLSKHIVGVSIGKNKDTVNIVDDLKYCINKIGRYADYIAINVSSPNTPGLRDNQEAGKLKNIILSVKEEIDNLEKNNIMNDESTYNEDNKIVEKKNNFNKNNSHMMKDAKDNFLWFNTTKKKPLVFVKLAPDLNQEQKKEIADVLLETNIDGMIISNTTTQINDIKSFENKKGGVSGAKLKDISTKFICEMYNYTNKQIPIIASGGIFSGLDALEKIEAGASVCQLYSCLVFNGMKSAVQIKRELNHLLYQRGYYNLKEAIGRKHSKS

[3] = biological target: T2, Dihydroorotate dehydrogenase (Plasmodium falciparum, UniProt Q54A96); assay: Inhibition of Plasmodium falciparum […] dehydrogenase expressed in Escherichia coli BL21(DE3) using […] as substrate by DCIP-based colorimetric analysis
T2 sequence (Q54A96 whole entry): T1 sequence (whole entry) with F276C

Homo sapiens [4] = species on record: Homo sapiens; assay: Ratio of IC50 for human dihydrofolate dehydrogenase Y147C mutant to IC50 for human wild type dihydrofolate dehydrogenase
Homo sapiens [5] = species on record: Homo sapiens; assay: Ratio of IC50 for human […] dehydrogenase H56A mutant to IC50 for human wild type […] dehydrogenase
Homo sapiens [6] = species on record: Homo sapiens; assay: Ratio of IC50 for human dihydrofolate dehydrogenase Y147F mutant to IC50 for human wild type dihydrofolate dehydrogenase
[7] = tested on: T3, Dihydroorotate dehydrogenase (quinone), mitochondrial (Plasmodium falciparum (isolate 3D7)), Q08210 [C276A]; assay: Inhibition of Plasmodium falciparum […] dehydrogenase C276A mutant expressed in Escherichia coli BL21(DE3) using […] as substrate at 100 uM by DCIP-based colorimetric analysis
T3 sequence (whole entry): T1 sequence (whole entry) with F276A

[8] = tested on: T4, Dihydroorotate dehydrogenase (quinone), mitochondrial (Plasmodium falciparum (isolate 3D7)), Q08210 [H185A]; assay: Inhibition of Plasmodium falciparum […] dehydrogenase H185A mutant expressed in Escherichia coli BL21(DE3) using […] as substrate at 100 uM by DCIP-based colorimetric analysis
T4 sequence (whole entry): T1 sequence (whole entry) with H185A, F276C

Homo sapiens [9] = species on record: Homo sapiens; assay: Ratio of IC50 for human dihydrofolate dehydrogenase Y147A mutant to IC50 for human wild type dihydrofolate dehydrogenase

Chain of Dihydroorotate dehydrogenase (quinone), mitochondrial (Q02127 whole entry): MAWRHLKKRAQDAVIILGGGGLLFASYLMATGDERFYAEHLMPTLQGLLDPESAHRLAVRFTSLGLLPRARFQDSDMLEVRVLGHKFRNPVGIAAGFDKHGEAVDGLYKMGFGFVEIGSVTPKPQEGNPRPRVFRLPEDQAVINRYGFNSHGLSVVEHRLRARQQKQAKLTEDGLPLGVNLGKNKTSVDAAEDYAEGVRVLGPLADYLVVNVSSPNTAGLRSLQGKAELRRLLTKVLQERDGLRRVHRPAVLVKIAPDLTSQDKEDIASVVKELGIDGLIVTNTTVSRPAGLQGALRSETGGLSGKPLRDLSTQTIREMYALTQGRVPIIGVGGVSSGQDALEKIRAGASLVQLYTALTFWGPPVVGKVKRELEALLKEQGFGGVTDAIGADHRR

Compound: CCc1cc(O)n2nc(SCc3cc(Cl)ccc3Cl)nc2n1
- IC50 [1]: 13 nM
- inhibition [2]: < 50%
- IC50 [3]: > 100000 nM
- Ratio IC50 (Homo sapiens [4]): 9
- Ratio IC50 (Homo sapiens [5]): 17
- Ratio IC50 (Homo sapiens [6]): 1.9
- inhibition [7]: < 50%
- inhibition [8]: < 50%
- Ratio IC50 (Homo sapiens [9]): 16
